# Assay results: the supplement of paper PMC9386025
# Tested on: JHOS2
# Assay: drug sensitivity score (DSS) (DSS (dimensionless)); higher = more sensitive (stronger drug response)
# Settings: genetic perturbation: DOX-induced control shRNA
# Method in brief: (§1)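 Ovarian cancer cell lines, after at least three days of shRNA induction with 100 ng/ml doxycycline, and patient-derived cultures were plated at 1 000 – 1 500 cells per well into 384-well plates pre-loaded with drugs at five concentrations spanning a 10,000-fold range. Plates were then kept for three days at 37 °C and 5.0 % CO2. Viability was measured as CellTiter-Glo luminescence on a PHERAstar FS, and each drug's dose-response curve was reduced to a drug sensitivity score computed by a previously described method.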
row,SMILES,drug sensitivity score
1,COc1cc(C(=O)O)ccc1NC(=O)[C@@H]1N[C@@H](CC(C)(C)C)[C@](C#N)(c2ccc(Cl)cc2F)[C@H]1c1cccc(Cl)c1F [Idasanutlin],< 0
2,O=C(Nc1ccncc1)C(=O)c1cn(Cc2ccc(Cl)cc2)c2ccccc12 [Indibulin],4.5
3,CC(C)NC[C@@H](C(=O)N1CCN(c2ncnc3c2[C@H](C)C[C@H]3O)CC1)c1ccc(Cl)cc1 [Ipatasertib],1.3
4,CC(C)C[C@H](NC(=O)CNC(=O)c1cc(Cl)ccc1Cl)B(O)O [Ixazomib],7.8
5,CCNCCS(=O)(=O)NC[C@@]1(c2ccccc2)SC(NC(=O)C(C)(C)C)=NN1C(=O)C(C)(C)C [Litronesib],7.7
6,NC(=O)N1CCC(CC(=O)N2CCC([C@H]3c4ncc(Br)cc4CCc4cc(Cl)cc(Br)c43)CC2)CC1 [Lonafarnib],9
7,CCNC(=O)c1noc(-c2cc(C(C)C)c(O)cc2O)c1-c1ccc(CN2CCOCC2)cc1 [Luminespib],12.9
8,O=C(Nc1cccc(NC(=O)c2cccc(O)c2O)c1)c1cccc(O)c1O [MST-312],11.5
9,CCN(CC)CCCC(C)Nc1c2ccc(Cl)cc2nc2ccc(OC)cc12 (centres undefined) [Mepacrine],12.1
10,S=c1[nH]cnc2nc[nH]c12 [Mercaptopurine],< 0
11,CN(Cc1cnc2nc(N)nc(N)c2n1)c1ccc(C(=O)N[C@@H](CCC(=O)O)C(=O)O)cc1 [Methotrexate],< 0
12,CO[C@@H]1[C@H](N(C)C(=O)c2ccccc2)C[C@H]2O[C@]1(C)n1c3ccccc3c3c4c(c5c6ccccc6n2c5c31)C(=O)NC4 [Midostaurin],10.7
13,CNC(=O)c1nn(C)c2c1C(C)(C)Cc1cnc(Nc3ccc(N4CCN(C)CC4)cc3)nc1-2 [Milciclib],12.4
14,CCCCCCCCCCCCCCCCOP(=O)([O-])OCC[N+](C)(C)C [Miltefosine],5.2
15,O=C1c2c(O)ccc(O)c2C(=O)c2c(NCCNCCO)ccc(NCCNCCO)c21 [Mitoxantrone],7.6
16,CCS(=O)(=O)Nc1ccc(Oc2ccc(F)cc2F)c(-c2cn(C)c(=O)c3[nH]ccc23)c1 [Mivebresib],16.6
17,Nc1ccccc1NC(=O)c1ccc(CNc2nccc(-c3cccnc3)n2)cc1 [Mocetinostat],3.4

row,SMILES,drug sensitivity score
1,CCNC(=O)C[C@@H]1N=C(c2ccc(Cl)cc2)c2cc(OC)ccc2-n2c(C)nnc21 [Molibresib],5.3
2,N#CCNC(=O)c1ccc(-c2ccnc(Nc3ccc(N4CCOCC4)cc3)n2)cc1 [Momelotinib],6.8
3,Cc1cc(OCc2nnc(SC3CCCC3)n2-c2cccnc2)ccc1-c1ccc(S(C)(=O)=O)cc1 [NMS-873],5.9
4,COc1ccc(-c2ccc3ncc4c(c3c2)n(-c2ccc(N3CCNCC3)c(C(F)(F)F)c2)c(=O)n4C)cn1 [NVP-BGT226],15
5,COc1cc2c(cc1OC(C)C)[C@H](c1ccc(Cl)cc1)N(c1ccc(N(C)C[C@H]3CC[C@H](N4CCN(C)C(=O)C4)CC3)cc1)C(=O)C2 [NVP-CGM097],6.1
6,CN[C@@H](C)C(=O)N[C@H](C(=O)N1CCC[C@H]1c1nc(C(=O)c2ccc(F)cc2)cs1)C1CCCCC1 [NVP-LCL161],20.4
7,Cn1c(Nc2ccc(C(F)(F)F)cc2)nc2cc(Oc3ccnc(-c4ncc(C(F)(F)F)[nH]4)c3)ccc21 [NVP-RAF265],3.8
8,CC(=O)c1cc2c(o1)C(=O)c1ccccc1C2=O [Napabucasin],19.2
9,CC1(C)CCC(c2ccc(Cl)cc2)=C(CN2CCN(c3ccc(C(=O)NS(=O)(=O)c4ccc(N[C@H](CCN5CCOCC5)CSc5ccccc5)c(S(=O)(=O)C(F)(F)F)c4)cc3)CC2)C1 [Navitoclax],< 0
10,CCOc1cc2ncc(C#N)c(Nc3ccc(OCc4ccccn4)c(Cl)c3)c2cc1NC(=O)/C=C/CN(C)C [Neratinib],5.2
11,COC(=O)c1ccc2c(c1)NC(=O)/C2=C(\Nc1ccc(N(C)C(=O)CN2CCN(C)CC2)cc1)c1ccccc1 [Nintedanib],4.4
12,CC(=O)c1cnc2ccc(-c3cc(Cl)c(O)c(Cl)c3)nc2c1N[C@H]1CC[C@H](CN(C)C)CC1 [OTS167],18.8
13,O=C(c1cc(Cc2n[nH]c(=O)c3ccccc23)ccc1F)N1CCN(C(=O)C2CC2)CC1 [Olaparib],3.2
14,COC(=O)C[C@](O)(CCCC(C)(C)O)C(=O)O[C@@H]1C(OC)=C[C@]23CCCN2CCc2cc4c(cc2[C@H]13)OCO4 [Omacetaxine],21.6
15,CC1(C)CC[C@]2(NC(=O)C(C)(F)F)CC[C@]3(C)[C@H](C(=O)C=C4[C@@]5(C)C=C(C#N)C(=O)C(C)(C)[C@@H]5CC[C@]43C)[C@@H]2C1 [Omaveloxolone],16.2
16,COc1ncc(-c2ccc3nccc(-c4ccnnc4)c3c2)cc1NS(=O)(=O)c1ccc(F)cc1F [Omipalisib],10.5

# Tested on: FIMM-PDC7 (patient-derived ovarian cancer cells)
# Assay: as above
# Settings: genetic perturbation: none (patient-derived cell culture)
# Method in brief: as §1
row,SMILES,drug sensitivity score
1,COc1cc(C(=O)O)ccc1NC(=O)[C@@H]1N[C@@H](CC(C)(C)C)[C@](C#N)(c2ccc(Cl)cc2F)[C@H]1c1cccc(Cl)c1F [Idasanutlin],15.7
2,O=C(Nc1ccncc1)C(=O)c1cn(Cc2ccc(Cl)cc2)c2ccccc12 [Indibulin],4.2
3,CC(C)NC[C@@H](C(=O)N1CCN(c2ncnc3c2[C@H](C)C[C@H]3O)CC1)c1ccc(Cl)cc1 [Ipatasertib],7.5
4,CC(C)C[C@H](NC(=O)CNC(=O)c1cc(Cl)ccc1Cl)B(O)O [Ixazomib],16.8
5,CCNCCS(=O)(=O)NC[C@@]1(c2ccccc2)SC(NC(=O)C(C)(C)C)=NN1C(=O)C(C)(C)C [Litronesib],4.3
6,NC(=O)N1CCC(CC(=O)N2CCC([C@H]3c4ncc(Br)cc4CCc4cc(Cl)cc(Br)c43)CC2)CC1 [Lonafarnib],10
7,CCNC(=O)c1noc(-c2cc(C(C)C)c(O)cc2O)c1-c1ccc(CN2CCOCC2)cc1 [Luminespib],19
8,O=C(Nc1cccc(NC(=O)c2cccc(O)c2O)c1)c1cccc(O)c1O [MST-312],< 0
9,CCN(CC)CCCC(C)Nc1c2ccc(Cl)cc2nc2ccc(OC)cc12 (centres undefined) [Mepacrine],12.3
10,S=c1[nH]cnc2nc[nH]c12 [Mercaptopurine],< 0
11,CN(Cc1cnc2nc(N)nc(N)c2n1)c1ccc(C(=O)N[C@@H](CCC(=O)O)C(=O)O)cc1 [Methotrexate],< 0
12,CO[C@@H]1[C@H](N(C)C(=O)c2ccccc2)C[C@H]2O[C@]1(C)n1c3ccccc3c3c4c(c5c6ccccc6n2c5c31)C(=O)NC4 [Midostaurin],10.3
13,CNC(=O)c1nn(C)c2c1C(C)(C)Cc1cnc(Nc3ccc(N4CCN(C)CC4)cc3)nc1-2 [Milciclib],7.9
14,CCCCCCCCCCCCCCCCOP(=O)([O-])OCC[N+](C)(C)C [Miltefosine],8.1
15,O=C1c2c(O)ccc(O)c2C(=O)c2c(NCCNCCO)ccc(NCCNCCO)c21 [Mitoxantrone],3.4
16,CCS(=O)(=O)Nc1ccc(Oc2ccc(F)cc2F)c(-c2cn(C)c(=O)c3[nH]ccc23)c1 [Mivebresib],16.3
